{"source": "patent US12038377B2", "about": "“Devices, compositions and methods for imaging with Raman scattering” (THE TRUSTEES OF COLUMBIA UNIVERSITY IN THE CITY OF NEW YORK, priority 2013, dated 2024)", "key": {"[1]": {"test_system": "DNA synthesis in HeLa cells", "assay": "SRS imaging of EdU incorporation during de novo DNA synthesis, control with DNA synthesis inhibitor", "format": "cell-based", "conditions": "10 mM hydroxyurea, 100 μM EdU, live HeLa cells"}, "[2]": {"test_system": "protein synthesis in HeLa cells", "assay": "Protein synthesis inhibition in HeLa cells incubated with deuterium-labeled all amino acids (C-D signal)", "format": "cell-based", "conditions": "5 μM anisomycin", "method": "FIGS. 34a-34i is a set of exemplary images based on SRS imaging of time-dependent de novo protein synthesis and drug-induced protein synthesis inhibition effect in live HeLa cells incubated in deuterium-labeled all amino acid medium. […] As a control, the amide I (1655 cm^−1) signal remains at a steady state over time (5 hrs—FIG. 34d, 12 hrs—FIG. 34e, 20 hrs—FIG. 34f). FIGS. 34g-34i illustrate ratio images between the SRS image at 2133 cm^−1 (newly synthesized proteins) and the SRS image at 1655 cm^−1 (the amide I band from total proteins), representing the relative new protein fraction with subcellular resolution at each time point (5 hrs—FIG. 34g, 12 hrs—FIG. 34h, 20 hrs—FIG. 34i). The bar represents the ratio ranging from low to high.\nThe effect of protein synthesis inhibition by chemical drugs can be further tested to validate that the detected C-D signal indeed derives from nascent proteins. […] (See, e.g., FIG. 34k). […] Thus, the detected C-D SRS signal (e.g., FIGS. 34a-34c) can originate from deuterium-labeled nascent proteins, which can vanish upon adding the protein synthesis inhibitor."}, "[3]": {"test_system": "RNA synthesis in HeLa cells", "assay": "SRS imaging of EU incorporation (RNA transcription), control with RNA synthesis inhibitor", "format": "cell-based", "conditions": "200 nM actinomycin D, 2 mM EU, live HeLa cells", "description": "Next, we studied RNA transcription and turnover using the alkyne-tagged uridine analogue, 5-ethynyl uridine (EU)8 in Hela cells (e.g. FIG. 12a)."}, "[4]": {"test_system": "hippocampal neuronal cultures", "assay": "Pulse-chase imaging of proteome turnover in hippocampal neuronal cultures under proteasomal stress", "format": "cell-based", "method": "Regular Medium of D12 hippocampal neuronal cultures was replaced by methionine-deficient medium containing 1 mM L-Homopropargylglycine (e.g., HPG, C10186, Invitrogen) for 12 h. The medium was then exchanged to fresh methionine-deficient medium containing 1 mM AHA with or without 10 μM MG132 (e.g., M7449 SIGMA) for another 10 h. Cells were fixed with 4% PFA for 20 min, permeabilized with 0.5% Triton for 15 min. The immuno-staining procedures were the same as described above. Then 1.25 μM MARS2228-azide with Click-iT® Cell Reaction Buffer was added to cells/slices to react with HPG for 20 min. After washing with PBS, 4 μM Alexa 647-alkyne with Click-iT® Cell Reaction Buffer was added to react with AHA for 20 min. Cells were washed with PBS before imaging.\n6 technical replicates of 8-colour images were acquired from 3 independent neuronal co-cultures (e.g., the same condition as described above for FIGS. 48d1-48d5) for statistical presentation. […] Cross-checking 8-colour staining, the percentages of astrocytes with aggregations (e.g., the number of astrocytes with aggregations divided by the total number of astrocytes) and the percentages of neurons with aggregations (e.g., the number of neurons with aggregations divided by the total number of neurons) were calculated for each image sets. […]"}, "[5]": {"test_system": "HeLa cells", "conditions": "2 mM methionine competing with 2 mM Hpg, live HeLa cells", "procedure": "FIG. 12f illustrates live Hela cells incubated with 2 mM Hpg alone (alkyne-on) and with 2 mM methionine (Control). […] For FIG. 12b, FIG. 12d, and FIG. 12f, alkyne-off and amide images display the same set of cells as the alkyne-on images; lipid images capture the same cells as control images.\nSample preparation for SRS imaging of live cells and organisms. For all SRS imaging experiments of HeLa cells (e.g. FIGS. 12a-12j), cells were first Seeded on coverslips with a density of 1×10^5/mL in petri dishes with 2 mL DMEM culture medium for 20 h at 37° C. and 5% CO2. • 1) EdU experiment, DMEM culture medium was then changed to DMEM medium (FBS-free) for 24 h for cell cycle synchronization. After synchronization, medium was replaced back to DMEM culture medium and EdU (10 mM stock in PBS) was simultaneously added to a concentration of 100 μM for 15 h. • 2) EU experiment, EU (100 mM stock in PBS) was added to the DMEM culture medium directly to a concentration of 2 mM for 7 h. • 3) Hpg experiment, DMEM culture medium was then changed to methionine-deficient culture medium for 1 h, followed by supplying 2 mM Hpg (200 mM stock in PBS) in the medium for 24 h. • 4) Propargylcholine and EdU dual-color experiment, DMEM culture medium was changed to DMEM medium (FBS-free) for synchronization. […]"}, "[6]": {"test_system": "HeLa cells", "assay": "Alkyne-D-glucose uptake and competition in live HeLa cells (SRS)", "format": "cell-based"}, "[7]": {"test_system": "mouse ear tissue", "assay": "SRS imaging of drug delivery into mouse ear tissue", "source_text": "Sample preparation for drug delivery into mouse ear tissues. […] The amide (1655 cm^−1) and lipid (2845 cm^−1) images have been applied with linear spectral unmixing to eliminate cross talk before composition.\nFIG. 17a depicts Raman spectra of a drug cream, Lamisil, containing 1% TH and mouse ear skin tissue. FIGS. 17b-17e illustrate SRS imaging of tissue layers from stratum corneum (z=4 μm) to viable epidermis (z=24 μm), sebaceous gland (z=48 μm) and subcutaneous fat (z=88 μm). To facilitate tissue penetration, DMSO solution containing 1% TH was applied onto the ears of an anesthetized live mouse for 30 min and the dissected ears are imaged afterwards. […] The composite images show protein (1655 cm^−1) and lipid (2845 cm^−1) distributions.\nFIGS. 18a and 18b show SRS imaging of the viable epidermis layer (z=20 μm) and the sebaceous gland layer (z=40 μm). […] The composite images show both protein (1655 cm^−1) and lipid (2845 cm^−1) distributions."}}, "note": "Where a name gives a salt, the structure may show the parent alone. Starred links: 1 amine or outer side, 2 acyl side, 3 side chain; linkers in the order of their positions; H or OH if unused. Positions of bridges follow the written chain, without caps; N, C: chain ends. Non-standard residues stand in square brackets, D forms with d. Residues, ends and D or L forms follow the SMILES beside them. Chains are numbered I, II in the order given. *: point of attachment. Actinocin(9to1) = Cc1c2oc3c(C)ccc(C(=O)[*:1])c3nc-2c(C(=O)[*:2])c(N)c1=O; NMeV = CN[C@H](C(=O)O)C(C)C; Cbz = O=C(OCc1ccccc1)*; Sar = CNCC(=O)O", "data": [{"smiles": "NC(=O)NO", "note": "[hydroxyurea]", "values": [{"measurement": "EdU signal (newly synthesized DNA)", "setting": "[1]", "result": "No EdU signal shows up"}]}, {"smiles": "COc1ccc(C[C@H]2NC[C@H](O)[C@H]2OC(C)=O)cc1", "note": "[anisomycin]", "values": [{"measurement": "C-D signal in the spontaneous Raman spectrum (2133 cm−1)", "setting": "[2]; HeLa cells, deuterium-labeled all amino acids", "result": "absence of the C-D signal"}, {"measurement": "C-D SRS imaging signal of newly synthesized proteins", "setting": "[2]; compared with no inhibitor", "result": "drastically weaker signal"}, {"measurement": "total proteome signal (2940 cm−1 image)", "setting": "[2]; versus non-drug treated counterpart", "result": "remains at a similar level"}]}, {"smiles": "Cc1c2oc3c(C)ccc(C(=O)N[C@@H]4C(=O)N[C@H](C(C)C)C(=O)N5CCC[C@H]5C(=O)N(C)CC(=O)N(C)[C@@H](C(C)C)C(=O)O[C@@H]4C)c3nc-2c(C(=O)N[C@@H]2C(=O)N[C@H](C(C)C)C(=O)N3CCC[C@H]3C(=O)N(C)CC(=O)N(C)[C@@H](C(C)C)C(=O)O[C@@H]2C)c(N)c1=O", "note": "[actinomycin D] (I: T[dV]P[Sar][NMeV] / II: T[dV]P[Sar][NMeV]; ester I:1-I:C, II:1-II:C; linker I:N-II:N via Actinocin(9to1))", "values": [{"measurement": "EU alkyne-on signal (newly synthesized RNA)", "setting": "[3]", "result": "nearly disappears"}]}, {"smiles": "CC(C)C[C@@H](C=O)NC(=O)[C@H](CC(C)C)NC(=O)[C@H](CC(C)C)NC(=O)OCc1ccccc1", "note": "[MG132] (Cbz-Leu-Leu-Leu-aldehyde)", "values": [{"measurement": "cell type with proteome inclusions", "setting": "[4]; 10 μM MG132, neuronal co-cultures, n=6", "result": "proteome inclusions appeared mostly in astrocytes instead of neurons"}, {"measurement": "proteome turnover", "setting": "[4]; 10 μM MG132 in the chase period, 10 h", "result": "retarded the proteome turnover"}]}, {"smiles": "CSCC[C@H](N)C(=O)O", "note": "[methionine, L-methionine]", "values": [{"measurement": "Hpg signal (newly synthesized proteins)", "setting": "[5]", "result": "causes the signal to disappear"}]}, {"smiles": "C#CCOC1C(O)C(O)OC(CO)C1O", "note": "[alkyne-D-glucose]", "values": [{"measurement": "glucose signal inside cells (uptake)", "setting": "[6]; 32 mM, live HeLa cells, 10 min to 4 h", "result": "increasing over time"}, {"measurement": "alkyne-D-glucose signal under competition with regular D-glucose", "setting": "[6]; D-glucose 10 mM, 50 mM and 100 mM", "result": "decreases"}, {"measurement": "alkyne-D-glucose signal under competition with L-glucose", "setting": "[6]; L-glucose", "result": "retained"}]}, {"smiles": "CN(C/C=C/C#CC(C)(C)C)Cc1cccc2ccccc12", "note": "[terbinafine hydrochloride]", "values": [{"measurement": "tissue penetration pathway", "setting": "[7]; 1% TH in DMSO, mouse ear, 30 min", "result": "penetrates into tissues through the lipid phase"}, {"measurement": "depth of drug delivery imaged inside mouse ear tissue", "setting": "[7]; internal alkyne at 2230 cm−1, 1% TH applied 30 min", "result": "about 100 μm"}]}]}
